{"source": "patent US11149046B2", "about": "“Antibacterial sideromycins” (Hsiri Therapeutics, Inc., priority 2014, dated 2021)", "key": {"[1]": {"test_system": "Acinetobacter baumannii ATCC 17961", "test": "Agar diffusion (Kirby-Bauer) assay, with and without hydrogel", "format": "cell-based", "conditions": "Acinetobacter; FIG. 8, 9, 10", "from_the_text": "(§1) Table 3 that was included in the first Example 4 section provides antibacterial data for the first synthetic sideromycins we prepared and studied. The second Example 4 section elaborated and expanded on that data with inclusion of representative antibacterial data in the text and associated pictures of Petri dish assays. MIC (minimum inhibition concentration) is given in μM and AD (agar diffusion zones of inhibition are given in mm from Kirby-Bauer Petri dish growth inhibition studies).\nWe investigated whether the sideromycin absorbed in the gel be able to diffuse out of the gel and into the agar to effect antibacterial growth. As a control, the sideromycin alone, without gel, was added in a separate 9 mm well, as usual.\nThe second question was whether the sideromycin continue to be released and be able to effect bacterial growth inhibition over extended periods. Thus, additional identical agar plates were prepared and stored at 4° C. for 24, 48 and 72 hours to allow diffusion of the sideromycin (control and gel forms) into the agar before allowing the bacteria to grow in an incubator. Then after each time period, the Petri dishes were incubated at 37° C. for 20 hours to promote bacteria growth in the agar. […] The study has been extended to as long as 168 hours (one week) with retention of antibiotic effectiveness."}, "[2]": {"test_system": "Pseudomonas aeruginosa 01 (Pa01)", "test": "MIC determination", "format": "cell-based", "conditions": "Pseudomonas aeruginosa; Table 5; read-out: MIC", "from_the_text": "as §1"}, "E. coli DC0 [3]": {"test_system": "E. coli DC0", "test": "MIC determination", "format": "cell-based", "conditions": "for MIC: Escherichia coli", "from_the_text": "as §1"}, "[4]": {"test_system": "E. coli DC2 (permeability mutant)", "test": "MIC determination", "format": "cell-based", "from_the_text": "as §1"}, "M. luteus ATCC-10240": {"test_system": "M. luteus ATCC-10240", "test": "MIC determination", "format": "cell-based", "conditions": "iron deficient media"}, "Pa4": {"test_system": "Pa4", "test": "MIC determination", "format": "cell-based, Pseudomonas aeruginosa", "conditions": "Pseudomonas aeruginosa; Table 5", "from_the_text": "as §1"}, "P. aeruginosa KW799/wt": {"test_system": "P. aeruginosa KW799/wt", "test": "MIC determination", "format": "cell-based, Pseudomonas aeruginosa", "conditions": "for MIC: Pseudomonas aeruginosa, KW799/WT", "from_the_text": "as §1"}, "Pa6": {"test_system": "Pa6", "test": "MIC determination", "format": "cell-based, Pseudomonas aeruginosa", "conditions": "Pseudomonas aeruginosa; Table 5; read-out: MIC", "from_the_text": "(§2) MIC (minimum inhibition concentration) is given in μM and AD (agar diffusion zones of inhibition are given in mm from Kirby-Bauer Petri dish growth inhibition studies)."}, "B. subtilis ATCC-6633": {"test_system": "B. subtilis ATCC-6633", "test": "MIC determination", "format": "cell-based", "conditions": "iron deficient media"}, "S. aureus SG511": {"test_system": "S. aureus SG511", "test": "MIC determination", "format": "cell-based", "conditions": "iron deficient media"}, "[5]": {"test_system": "P. aeruginosa KW799/61 (permeability mutant)", "test": "microbe, parasite or virus in culture", "format": "cell-based, Pseudomonas aeruginosa", "from_the_text": "as §2"}, "M. vaccae IMET-10760": {"test_system": "M. vaccae IMET-10760", "test": "MIC determination", "format": "cell-based", "conditions": "iron deficient media"}, "E. coli DC0 [6]": {"test_system": "E. coli DC0", "test": "Agar diffusion (Kirby-Bauer) assay", "format": "cell-based", "conditions": "Table 5", "from_the_text": "as §1"}, "[7]": {"test_system": "Pseudomonas aeruginosa KW799/wt", "test": "Agar diffusion (Kirby-Bauer) assay", "format": "cell-based", "conditions": "wild type Pseudomonas; FIG. 8, 9, 12; listed as YML-1-18", "from_the_text": "as §1"}, "E. coli DC2": {"test_system": "E. coli DC2", "test": "Agar diffusion (Kirby-Bauer) assay", "format": "cell-based", "conditions": "Table 5", "from_the_text": "as §1"}, "[8]": {"test_system": "Pa-Da-1304 CF patient isolate", "test": "MIC determination", "format": "cell-based, Pseudomonas aeruginosa", "conditions": "Pseudomonas aeruginosa", "from_the_text": "as §2\nWe obtained a clinical isolate of Pseudomonas from a cystic fibrosis patient."}, "A. baumannii ATCC 17961": {"test_system": "A. baumannii ATCC 17961", "test": "MIC determination", "format": "cell-based, Acinetobacter baumannii", "from_the_text": "as §1"}, "[9]": {"conditions": "iron deficient media, read-out: MIC in Fe(−)MHII Media"}}, "note": "“And” between values parts separate entries of the source, which are not always exact repeats. Equal values may be shown once. “Also recorded” adds a separate entry of the source. Read-outs that look alike come from different tables or passages of the source.", "data": [{"compound": "CC(=O)Oc1cccc(C(=O)NCCCCN(CC(=O)N[C@@H](C(=O)N[C@@H]2C(=O)N3C2SC(C)(C)[C@@H]3C(=O)O)c2ccccc2)C(=O)c2cccc(OC(C)=O)c2OC(C)=O)c1OC(C)=O", "note": "(stereo partly drawn) [YML-I-18]", "values": [{"measurement": "zones of inhibition (in words)", "setting": "[1]", "result": "impressive zones of inhibition"}, {"measurement": "MIC", "setting": "[2]", "result": 0.0156, "unit": "µM"}, {"measurement": "MIC", "setting": "E. coli DC0 [3]; DC0, iron deficient media, read-out: MIC in Fe(−)MHII Media", "result": "< 0.005", "unit": "µg/mL"}, {"measurement": "MIC", "setting": "E. coli DC0 [3]; representative strains of E. coli (entries 4-5, Table 3: DC0, DC2), read-out: MIC", "result": "< 0.005", "unit": "µg/mL"}, {"measurement": "MIC", "setting": "[4]; Escherichia coli, read-out: MIC in Fe(−)MHII Media", "result": "< 0.005", "unit": "µg/mL"}, {"measurement": "MIC", "setting": "M. luteus ATCC-10240; Micrococcus luteus, ATCC10240, read-out: MIC in Fe(−)MHII Media", "result": "> 10", "unit": "µg/mL"}, {"measurement": "MIC", "setting": "Pa4", "result": 0.03, "unit": "µM"}, {"measurement": "MIC", "setting": "P. aeruginosa KW799/wt; Table 5, read-out: MIC", "result": "0.0156 to 0.0313", "unit": "µM"}, {"measurement": "MIC", "setting": "P. aeruginosa KW799/wt; [9]", "result": 0.0156, "unit": "µM"}, {"measurement": "MIC in Fe(−)MHII Media", "setting": "P. aeruginosa KW799/wt; iron deficient media, listed as HKI-9924116", "result": "(0.0156 μM"}, {"measurement": "increase in antibiotic activity over ampicillin", "setting": "P. aeruginosa KW799/wt; several strains of P. aeruginosas (entries 1 and 2, Table 3)", "result": 16000, "unit": "fold"}, {"measurement": "MIC", "setting": "Pa6", "result": "> 100", "unit": "µM"}, {"measurement": "MIC", "setting": "B. subtilis ATCC-6633; Bacillus subtilis, ATCC6633, read-out: MIC in Fe(−)MHII Media", "result": "> 10", "unit": "µg/mL"}, {"measurement": "MIC", "setting": "S. aureus SG511; Staphylococcus aureus, SG511, read-out: MIC in Fe(−)MHII Media", "result": "> 10", "unit": "µg/mL"}, {"measurement": "MIC", "setting": "[5]; Pseudomonas aeruginosa, read-out: MIC in Fe(−)MHII Media", "result": 0.052, "unit": "µg/mL"}, {"measurement": "MIC", "setting": "M. vaccae IMET-10760; Mycolicibacterium vaccae, IMET10760, read-out: MIC in Fe(−)MHII Media", "result": "> 10", "unit": "µg/mL"}, {"measurement": "AD = agar diffusion inhibition zones", "setting": "E. coli DC0 [6]", "result": "(AD = 32) mm"}, {"measurement": "zones of inhibition (in words)", "setting": "[7]", "result": "impressive zones of inhibition; also recorded: potently active"}, {"measurement": "AD = agar diffusion inhibition zones", "setting": "E. coli DC2", "result": "(AD = 40) mm"}, {"measurement": "MIC", "setting": "[8]; Table 5", "result": "0.4 to 0.75", "unit": "µM"}, {"measurement": "MIC", "setting": "[8]; clinical isolate from a cystic fibrosis patient", "result": "0.4 to 0.75", "unit": "µM"}, {"measurement": "MIC", "setting": "A. baumannii ATCC 17961; Acinetobacter baumannii, ATCC17961, iron deficient media, read-out: MIC in Fe(−)MHII Media", "result": 0.313, "unit": "µg/mL"}, {"measurement": "MIC", "setting": "A. baumannii ATCC 17961; Acinetobacter baumannii, ATCC17961, text, read-out: MIC", "result": "0.156 µg/mL to 0.313 µg/mL and 0.34 µM"}, {"measurement": "MIC", "setting": "A. baumannii ATCC 17961; iron deficient media, listed as HKI-9924116, read-out: MIC in Fe(−)MHII Media", "result": 0.34, "unit": "µM"}, {"measurement": "MIC", "setting": "A. baumannii ATCC 17961; iron deficient media, listed as YML-1-18, read-out: MIC in Fe(−)MHII Media", "result": 0.156, "unit": "µM"}]}, {"compound": "CC(=O)Oc1cccc(C(=O)NCCCCN(CC(=O)NC(C(=O)NC2C(=O)N3C2SC(C)(C)C3C(=O)[O-])c2ccccc2)C(=O)c2cccc(OC(C)=O)c2OC(C)=O)c1OC(C)=O.[Na+]", "note": "(stereo not drawn) [HKI-9924154]", "values": [{"measurement": "MIC in Fe(−)MHII Media", "setting": "E. coli DC0 [3]; iron deficient media", "result": "<0.005", "unit": "µg/mL"}, {"measurement": "MIC in Fe(−)MHII Media", "setting": "[4]; iron deficient media", "result": "<0.005", "unit": "µg/mL"}, {"measurement": "MIC in Fe(−)MHII Media", "setting": "M. luteus ATCC-10240", "result": ">10", "unit": "µg/mL"}, {"measurement": "MIC in Fe(−)MHII Media", "setting": "P. aeruginosa KW799/wt; iron deficient media", "result": "0.04 to 0.052", "unit": "µg/mL"}, {"measurement": "MIC in Fe(−)MHII Media", "setting": "B. subtilis ATCC-6633", "result": ">10", "unit": "µg/mL"}, {"measurement": "MIC in Fe(−)MHII Media", "setting": "S. aureus SG511", "result": ">10", "unit": "µg/mL"}, {"measurement": "MIC in Fe(−)MHII Media", "setting": "[5]; iron deficient media", "result": 0.13, "unit": "µg/mL"}, {"measurement": "MIC in Fe(−)MHII Media", "setting": "M. vaccae IMET-10760", "result": ">10", "unit": "µg/mL"}, {"measurement": "MIC in Fe(−)MHII Media", "setting": "A. baumannii ATCC 17961; iron deficient media", "result": 0.313, "unit": "µg/mL"}, {"measurement": "MIC", "setting": "A. baumannii ATCC 17961; [9]", "result": 0.34, "unit": "µM"}, {"measurement": "MIC", "setting": "A. baumannii ATCC 17961; read-out: MIC", "result": 0.34, "unit": "µM"}]}]}
